Source: PubChem BioAssay AID2060903 (Molecular Pharmacology Branch, DTP, NCI, 2025)
Blank lines part the entries; values can stand above or below the compound they belong to.

Test system: 377384-186-R-J1-PDC complex spheroid viability
Test: Anticancer human tumor 377384-186-R-J1-PDC patient-derived pancreatic carcinoma cell line growth inhibition [RAS]
Settings: for IC50: curve of first compound; for viability, T/C: stronger effect = lower value
Procedure, shortened: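 Agents were tested in combination matrices in half-log decrements from a top concentration at or near clinical Cmax (10 microM if undetermined). Targets were multi-cell spheroids of tumour lines plus HUVEC and MSC stromal cells.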

[1] = second compound 0.000949 µM, first compound 0.0316 µM
[2] = second compound 0.000949 µM, first compound 0.1 µM
[3] = second compound 0.000949 µM, first compound 0.316 µM
[4] = second compound 0.000949 µM, first compound 1 µM
[5] = second compound 0.000949 µM, first compound 3.16 µM
[6] = second compound 0.000949 µM, first compound 10 µM
[7] = second compound 0.003 µM, first compound 0.0316 µM
[8] = second compound 0.003 µM, first compound 0.1 µM
[9] = second compound 0.003 µM, first compound 0.316 µM
[10] = second compound 0.003 µM, first compound 1 µM
[11] = second compound 0.003 µM, first compound 3.16 µM
[12] = second compound 0.003 µM, first compound 10 µM
[13] = second compound 0.00949 µM, first compound 0.0316 µM
[14] = second compound 0.00949 µM, first compound 0.1 µM
[15] = second compound 0.00949 µM, first compound 0.316 µM
[16] = second compound 0.00949 µM, first compound 1 µM
[17] = second compound 0.00949 µM, first compound 3.16 µM
[18] = second compound 0.00949 µM, first compound 10 µM
[19] = second compound 0.03 µM, first compound 0.0316 µM
[20] = second compound 0.03 µM, first compound 0.1 µM
[21] = second compound 0.03 µM, first compound 0.316 µM
[22] = second compound 0.03 µM, first compound 1 µM
[23] = second compound 0.03 µM, first compound 3.16 µM
[24] = second compound 0.03 µM, first compound 10 µM
[25] = second compound 0.0949 µM, first compound 0.0316 µM
[26] = second compound 0.0949 µM, first compound 0.1 µM
[27] = second compound 0.0949 µM, first compound 0.316 µM
[28] = second compound 0.0949 µM, first compound 1 µM
[29] = second compound 0.0949 µM, first compound 3.16 µM
[30] = second compound 0.0949 µM, first compound 10 µM
[31] = second compound 0.3 µM, first compound 0.0316 µM
[32] = second compound 0.3 µM, first compound 0.1 µM
[33] = second compound 0.3 µM, first compound 0.316 µM
[34] = second compound 0.3 µM, first compound 1 µM
[35] = second compound 0.3 µM, first compound 3.16 µM
[36] = second compound 0.3 µM, first compound 10 µM
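Also: spheroids exposed to compounds for seven days before readout.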

Structure (SMILES): Cc1nc(N2CCC3(CC2)COC(C)C3N)c(CO)nc1Sc1ccnc(N)c1Cl (stereo not given) + CCn1c(-c2cc(N3CCN(C)CC3)cnc2C(C)OC)c2c3cc(ccc31)-c1csc(n1)CC(NC(=O)C1CC1C)C(=O)N1CCCC(N1)C(=O)OCC(C)(C)C2
IC50 (second compound 0.000949 µM): < 0.0316 µM
IC50 (second compound 0.003 µM): < 0.0316 µM
IC50 (second compound 0.00949 µM): < 0.0316 µM
IC50 (second compound 0.03 µM): < 0.0316 µM
IC50 (second compound 0.0949 µM): < 0.0316 µM
IC50 (second compound 0.3 µM): < 0.0316 µM
viability, T/C [1]: 28.9%
viability, T/C [2]: 15.6%
viability, T/C [3]: 5.63%
viability, T/C [4]: 3.93%
viability, T/C [5]: 2.14%
viability, T/C [6]: 1.26%
viability, T/C [7]: 5.98%
viability, T/C [8]: 3.1%
viability, T/C [9]: 1.7%
viability, T/C [10]: 1.39%
viability, T/C [11]: 0.72%
viability, T/C [12]: 0.71%
viability, T/C [13]: 2.71%
viability, T/C [14]: 2.19%
viability, T/C [15]: 1.28%
viability, T/C [16]: 1.66%
viability, T/C [17]: 0.87%
viability, T/C [18]: 0.71%
viability, T/C [19]: 2.03%
viability, T/C [20]: 1.9%
viability, T/C [21]: 1.46%
viability, T/C [22]: 1.09%
viability, T/C [23]: 0.71%
viability, T/C [24]: 0.28%
viability, T/C [25]: 1.82%
viability, T/C [26]: 1.54%
viability, T/C [27]: 1.69%
viability, T/C [28]: 0.9%
viability, T/C [29]: 0.56%
viability, T/C [30]: 0.2%
viability, T/C [31]: 1.8%
viability, T/C [32]: 1.68%
viability, T/C [33]: 1.39%
viability, T/C [34]: 1.08%
viability, T/C [35]: 0.69%
viability, T/C [36]: 0.21%

Structure (SMILES): NC1c2ccccc2OC12CCN(c1cnc3c(N4CCCc5ncccc54)n[nH]c3n1)CC2 (stereo not given) + CCn1c(-c2cc(N3CCN(C)CC3)cnc2C(C)OC)c2c3cc(ccc31)-c1csc(n1)CC(NC(=O)C1CC1C)C(=O)N1CCCC(N1)C(=O)OCC(C)(C)C2
IC50 (second compound 0.000949 µM): < 0.0316 µM
IC50 (second compound 0.003 µM): < 0.0316 µM
IC50 (second compound 0.00949 µM): < 0.0316 µM
IC50 (second compound 0.03 µM): < 0.0316 µM
IC50 (second compound 0.0949 µM): < 0.0316 µM
IC50 (second compound 0.3 µM): < 0.0316 µM
viability, T/C [1]: 5.69%
viability, T/C [2]: 3.23%
viability, T/C [3]: 1.88%
viability, T/C [4]: 1.71%
viability, T/C [5]: 1.35%
viability, T/C [6]: 0.78%
viability, T/C [7]: 2.74%
viability, T/C [8]: 1.37%
viability, T/C [9]: 1.06%
viability, T/C [10]: 0.67%
viability, T/C [11]: 0.28%
viability, T/C [12]: 0.2%
viability, T/C [13]: 1.78%
viability, T/C [14]: 1.22%
viability, T/C [15]: 0.77%
viability, T/C [16]: 0.41%
viability, T/C [17]: 1.43%
viability, T/C [18]: 0.08%
viability, T/C [19]: 2.14%
viability, T/C [20]: 1.39%
viability, T/C [21]: 1%
viability, T/C [22]: 0.36%
viability, T/C [23]: 0.18%
viability, T/C [24]: 0.1%
viability, T/C [25]: 1.61%
viability, T/C [26]: 1.57%
viability, T/C [27]: 0.67%
viability, T/C [28]: 0.17%
viability, T/C [29]: 0.13%
viability, T/C [30]: 0.29%
viability, T/C [31]: 1.41%
viability, T/C [32]: 1.04%
viability, T/C [33]: 0.5%
viability, T/C [34]: 0.27%
viability, T/C [35]: 0.14%
viability, T/C [36]: 0.1%

Further lines, with some results ahead:

IC50 (second compound 0.000949 µM): < 0.0316 µM
IC50 (second compound 0.003 µM): < 0.0316 µM
IC50 (second compound 0.00949 µM): < 0.0316 µM
IC50 (second compound 0.03 µM): < 0.0316 µM
IC50 (second compound 0.0949 µM): < 0.0316 µM
IC50 (second compound 0.3 µM): < 0.0316 µM
Structure (SMILES): CC1(O)CCCC1n1c(=O)c(C(F)F)cc2cnc(NC3CCN(S(C)(=O)=O)CC3)nc21 (stereo not given) + CCn1c(-c2cc(N3CCN(C)CC3)cnc2C(C)OC)c2c3cc(ccc31)-c1csc(n1)CC(NC(=O)C1CC1C)C(=O)N1CCCC(N1)C(=O)OCC(C)(C)C2
viability, T/C [1]: 46.6%
viability, T/C [2]: 24.9%
viability, T/C [3]: 16.1%
viability, T/C [4]: 14.2%
viability, T/C [5]: 18.5%
viability, T/C [6]: 4.43%
viability, T/C [7]: 20.3%
viability, T/C [8]: 10.9%
viability, T/C [9]: 9.42%
viability, T/C [10]: 11.9%
viability, T/C [11]: 13.4%
viability, T/C [12]: 2.79%
viability, T/C [13]: 4.59%
viability, T/C [14]: 4.26%
viability, T/C [15]: 4.8%
viability, T/C [16]: 4.95%
viability, T/C [17]: 6.03%
viability, T/C [18]: 2.54%
viability, T/C [19]: 2.77%
viability, T/C [20]: 2.5%
viability, T/C [21]: 3.09%
viability, T/C [22]: 3.54%
viability, T/C [23]: 3.12%
viability, T/C [24]: 2%
viability, T/C [25]: 1.91%
viability, T/C [26]: 2.25%
viability, T/C [27]: 2.46%
viability, T/C [28]: 2.54%
viability, T/C [29]: 1.98%
viability, T/C [30]: 2.3%
viability, T/C [31]: 2%
viability, T/C [32]: 2.25%
viability, T/C [33]: 2.49%
viability, T/C [34]: 2.5%
viability, T/C [35]: 1.75%
viability, T/C [36]: 1.85%

IC50 (second compound 0.000949 µM): < 0.0316 µM
IC50 (second compound 0.003 µM): < 0.0316 µM
IC50 (second compound 0.00949 µM): < 0.0316 µM
IC50 (second compound 0.03 µM): < 0.0316 µM
IC50 (second compound 0.0949 µM): < 0.0316 µM
IC50 (second compound 0.3 µM): < 0.0316 µM
Structure (SMILES): CCC(CC)c1cc(NC2CCC(N)C2)n2nccc2n1 (stereo not given) + CCn1c(-c2cc(N3CCN(C)CC3)cnc2C(C)OC)c2c3cc(ccc31)-c1csc(n1)CC(NC(=O)C1CC1C)C(=O)N1CCCC(N1)C(=O)OCC(C)(C)C2
viability, T/C [1]: 48.2%
viability, T/C [2]: 55%
viability, T/C [3]: 46.9%
viability, T/C [4]: 32.9%
viability, T/C [5]: 0.81%
viability, T/C [6]: 2.3%
viability, T/C [7]: 21.7%
viability, T/C [8]: 16.6%
viability, T/C [9]: 20.9%
viability, T/C [10]: 10.7%
viability, T/C [11]: 0.83%
viability, T/C [12]: 2.38%
viability, T/C [13]: 4.86%
viability, T/C [14]: 4.6%
viability, T/C [15]: 5.64%
viability, T/C [16]: 3.71%
viability, T/C [17]: 0.61%
viability, T/C [18]: 3.05%
viability, T/C [19]: 2.61%
viability, T/C [20]: 2.47%
viability, T/C [21]: 2.47%
viability, T/C [22]: 2.01%
viability, T/C [23]: 0.73%
viability, T/C [24]: 1.89%
viability, T/C [25]: 1.88%
viability, T/C [26]: 1.8%
viability, T/C [27]: 1.76%
viability, T/C [28]: 2.22%
viability, T/C [29]: 0.82%
viability, T/C [30]: 2.4%
viability, T/C [31]: 2.16%
viability, T/C [32]: 1.88%
viability, T/C [33]: 1.75%
viability, T/C [34]: 1.54%
viability, T/C [35]: 0.54%
viability, T/C [36]: 1.98%

IC50 (second compound 0.000949 µM): < 0.00316 µM
IC50 (second compound 0.003 µM): < 0.00316 µM
IC50 (second compound 0.00949 µM): < 0.00316 µM
IC50 (second compound 0.03 µM): < 0.00316 µM
IC50 (second compound 0.0949 µM): < 0.00316 µM
IC50 (second compound 0.3 µM): < 0.00316 µM
Structure (SMILES): CCN1CCN(Cc2ccc(Nc3ncc(F)c(-c4cc(F)c5nc(C)n(C(C)C)c5c4)n3)nc2)CC1 + CCn1c(-c2cc(N3CCN(C)CC3)cnc2C(C)OC)c2c3cc(ccc31)-c1csc(n1)CC(NC(=O)C1CC1C)C(=O)N1CCCC(N1)C(=O)OCC(C)(C)C2
viability, T/C (second compound 0.000949 µM, first compound 0.00316 µM): 49.8%
viability, T/C (second compound 0.000949 µM, first compound 0.01 µM): 45%
viability, T/C [1]: 35.2%
viability, T/C [2]: 24.1%
viability, T/C [3]: 16.6%
viability, T/C [4]: 11.2%
viability, T/C (second compound 0.003 µM, first compound 0.00316 µM): 15.5%
viability, T/C (second compound 0.003 µM, first compound 0.01 µM): 14.5%
viability, T/C [7]: 15.9%
viability, T/C [8]: 10.2%
viability, T/C [9]: 6.69%
viability, T/C [10]: 4.94%
viability, T/C (second compound 0.00949 µM, first compound 0.00316 µM): 6.06%
viability, T/C (second compound 0.00949 µM, first compound 0.01 µM): 5.48%
viability, T/C [13]: 4.58%
viability, T/C [14]: 3.84%
viability, T/C [15]: 3.67%
viability, T/C [16]: 2.8%
viability, T/C (second compound 0.03 µM, first compound 0.00316 µM): 3.02%
viability, T/C (second compound 0.03 µM, first compound 0.01 µM): 2.33%
viability, T/C [19]: 2.87%
viability, T/C [20]: 2.54%
viability, T/C [21]: 2.06%
viability, T/C [22]: 2.27%
viability, T/C (second compound 0.0949 µM, first compound 0.00316 µM): 1.82%
viability, T/C (second compound 0.0949 µM, first compound 0.01 µM): 1.82%
viability, T/C [25]: 1.85%
viability, T/C [26]: 2.2%
viability, T/C [27]: 2.06%
viability, T/C [28]: 1.76%
viability, T/C (second compound 0.3 µM, first compound 0.00316 µM): 1.71%
viability, T/C (second compound 0.3 µM, first compound 0.01 µM): 3.5%
viability, T/C [31]: 2.34%
viability, T/C [32]: 1.78%
viability, T/C [33]: 2.27%
viability, T/C [34]: 1.13%
